In patent US20260285850A1, “SUBSTITUTED OXAZOLIDINONES AND IMIDAZOLINONES AS HERBICIDES” (FMC CORPORATION, priority 2023, published 2026):

Legend:
Format in all cases: in vivo
[1] = tested on: wheat (Triticum aestivum); experiment: Test A preemergence soil spray, visual injury rating 0-100; conditions: 10 days
Procedure, shortened: (§1)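 Preemergence directed soil spray or postemergence spray (2-10 cm, 1-2 leaf); loam/sand mix; compound in non-phytotoxic solvent + surfactant. Greenhouse, 10 d. Visual injury vs untreated, 0 = none, 100 = complete control.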

kochia (Bassia scoparia) [2] = experiment: as above; conditions: 10 days
Procedure, shortened: as §1

corn (Zea mays) [3] = experiment: as above; conditions: 10 days
Procedure, shortened: as §1

[4] = tested on: ragweed (common ragweed, Ambrosia artemisiifolia); experiment: as above; conditions: 10 days
Procedure, shortened: as §1

[5] = tested on: barnyardgrass (Echinochloa crus-galli); experiment: as above; conditions: 10 days
Procedure, shortened: as §1

[6] = tested on: palmer (palmer amaranth, palmer pigweed, Amaranthus palmeri); experiment: as above; conditions: 10 days
Procedure, shortened: as §1

[7] = tested on: ryegrass, Italian (italian ryegrass, Lolium multiflorum); experiment: as above; conditions: 10 days
Procedure, shortened: as §1

soybean (Glycine max) [8] = experiment: as above; conditions: 10 days
Procedure, shortened: as §1

[9] = tested on: green foxtail (Setaria viridis); experiment: as above; conditions: 10 days
Procedure, shortened: as §1

[10] = tested on: blackgrass (Alopecurus myosuroides); experiment: as above; conditions: 10 days
Procedure, shortened: as §1

[11] = tested on: oat, wild (wild oat, Avena fatua); experiment: as above; conditions: 10 days
Procedure, shortened: as §1

[12] = tested on: ducksalad (Heteranthera limosa); experiment: Test B flooded paddy test, visual plant response rating 0-100; conditions: 250 g ai/ha, Flood, applied to paddy water, evaluated after 13 days
Procedure, shortened: (§2)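 Paddy-water application: test compounds went directly into water flooded 3 cm above the soil surface, with plants at 2 leaves. After a 13-day greenhouse period, responses were judged by eye relative to controls; a dash marks an untested entry.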

rice (Oryza sativa) = experiment: as above; conditions: 250 g ai/ha, Flood, applied to paddy water, evaluated after 13 days
Procedure, shortened: as §2

[13] = tested on: barnyardgrass (Echinochloa crusgalli); experiment: as above; conditions: 250 g ai/ha, Flood, applied to paddy water, evaluated after 13 days
Procedure, shortened: as §2

[14] = tested on: sedge, umbrella (small-flower umbrella sedge, Cyperus difformis); experiment: as above; conditions: 250 g ai/ha, Flood, applied to paddy water, evaluated after 13 days
Procedure, shortened: as §2

[15] = tested on: wheat (Triticum aestivum); experiment: Test A postemergence application, visual injury rating 0-100
Procedure, shortened: as §1

kochia (Bassia scoparia) [16] = experiment: as above
Procedure, shortened: as §1

corn (Zea mays) [17] = experiment: as above
Procedure, shortened: as §1

[18] = tested on: ragweed (common ragweed, Ambrosia artemisiifolia); experiment: as above
Procedure, shortened: as §1

[19] = tested on: barnyardgrass (Echinochloa crus-galli); experiment: as above
Procedure, shortened: as §1

[20] = tested on: palmer (palmer amaranth, palmer pigweed, Amaranthus palmeri); experiment: as above
Procedure, shortened: as §1

[21] = tested on: ryegrass, Italian (italian ryegrass, Lolium multiflorum); experiment: as above
Procedure, shortened: as §1

[22] = tested on: galium (catchweed bedstraw, Galium aparine); experiment: as above; conditions: Postemergence, 16 g ai/ha, greenhouse 10 days; 0 no effect, 100 complete control
Procedure, shortened: as §1

[23] = tested on: horseweed (Erigeron canadensis); experiment: as above
Procedure, shortened: as §1

soybean (Glycine max) [24] = experiment: as above
Procedure, shortened: as §1

[25] = tested on: green foxtail (Setaria viridis); experiment: as above
Procedure, shortened: as §1

[26] = tested on: blackgrass (Alopecurus myosuroides); experiment: as above
Procedure, shortened: as §1

[27] = tested on: oat, wild (wild oat, Avena fatua); experiment: as above
Procedure, shortened: as §1

[28] = 62 g ai/ha, 0 = no effect, 100 = complete control
[29] = 62 g ai/ha, postemergence, 10 days, 0 = no effect, 100 = complete control
[30] = Postemergence, 16 g ai/ha, greenhouse 10 days, 0 no effect, 100 complete control

SMILES: CSCCOC(=O)C1=CCC(NC(=O)C2(C)CN(c3cc(Cl)cc(Cl)c3)C(=O)O2)C1 (stereo not drawn) [Compound 146]
- Wheat plant response rating ([1]; 16 g ai/ha, 0 to 100 scale): 0
- Wheat plant response rating (0-100) [1, 28]: 0
- Kochia plant response rating (kochia (Bassia scoparia) [2]; 16 g ai/ha, 0 to 100 scale): 0
- Kochia plant response rating (0-100) (kochia (Bassia scoparia) [2]; [28]): 0
- Corn plant response rating (corn (Zea mays) [3]; 16 g ai/ha, 0 to 100 scale): 0
- Corn plant response rating (0-100) (corn (Zea mays) [3]; [28]): 0
- Ragweed plant response rating ([4]; 16 g ai/ha, 0 to 100 scale): 0
- Ragweed plant response rating (0-100) [4, 28]: 0
- Barnyardgrass plant response rating ([5]; 16 g ai/ha, 0 to 100 scale): 0
- Barnyardgrass plant response rating (0-100) [5, 28]: 0
- Pigweed, Palmer plant response rating ([6]; 16 g ai/ha, 0 to 100 scale): 0
- Pigweed, Palmer plant response rating (0-100) [6, 28]: 0
- Ryegrass, Italian plant response rating ([7]; 16 g ai/ha, 0 to 100 scale): 0
- Ryegrass, Italian plant response rating (0-100) [7, 28]: 20
- Soybean plant response rating (soybean (Glycine max) [8]; 16 g ai/ha, 0 to 100 scale): 0
- Soybean plant response rating (0-100) (soybean (Glycine max) [8]; [28]): 0
- Foxtail, Green plant response rating ([9]; 16 g ai/ha, 0 to 100 scale): 0
- Foxtail, Green plant response rating (0-100) [9, 28]: 0
- Blackgrass plant response rating ([10]; 16 g ai/ha, 0 to 100 scale): 0
- Blackgrass plant response rating (0-100) [10, 28]: 0
- Oat, Wild plant response rating ([11]; 16 g ai/ha, 0 to 100 scale): 0
- Oat, Wild plant response rating (0-100) [11, 28]: 0
- Plant response rating, Ducksalad (0 to 100 scale, 0 is no effect and 100 is complete control) [12]: 0
- Plant response rating, Rice (0 to 100 scale, 0 is no effect and 100 is complete control) (rice (Oryza sativa)): 0
- Plant response rating, Barnyardgrass (0 to 100 scale, 0 is no effect and 100 is complete control) [13]: 0
- Plant response rating, Sedge, Umbrella (0 to 100 scale, 0 is no effect and 100 is complete control) [14]: 0
- Wheat plant response rating (0-100) [15, 29]: 0
- Wheat plant response rating (0 to 100 scale) [15, 30]: 0
- Kochia plant response rating (0-100) (kochia (Bassia scoparia) [16]; [29]): 0
- Kochia plant response rating (0 to 100 scale) (kochia (Bassia scoparia) [16]; [30]): 0
- Corn plant response rating (0-100) (corn (Zea mays) [17]; [29]): 0
- Corn plant response rating (0 to 100 scale) (corn (Zea mays) [17]; [30]): 0
- Ragweed plant response rating (0-100) [18, 29]: 0
- Ragweed plant response rating (0 to 100 scale) [18, 30]: 0
- Barnyardgrass plant response rating (0-100) [19, 29]: 20
- Barnyardgrass plant response rating (0 to 100 scale) [19, 30]: 0
- Pigweed, Palmer plant response rating (0-100) [20, 29]: 0
- Pigweed, Palmer plant response rating (0 to 100 scale) [20, 30]: 0
- Ryegrass, Italian plant response rating (0-100) [21, 29]: 0
- Ryegrass, Italian plant response rating (0 to 100 scale) [21, 30]: 0
- Galium plant response rating (0 to 100 scale) [22]: 0
- Horseweed plant response rating (0-100) [23, 29]: 10
- Horseweed plant response rating (0 to 100 scale) [23, 30]: 0
- Soybean plant response rating (0-100) (soybean (Glycine max) [24]; [29]): 0
- Soybean plant response rating (0 to 100 scale) (soybean (Glycine max) [24]; [30]): 0
- Foxtail, Green plant response rating (0-100) [25, 29]: 0
- Foxtail, Green plant response rating (0 to 100 scale) [25, 30]: 0
- Blackgrass plant response rating (0-100) [26, 29]: 0
- Blackgrass plant response rating (0 to 100 scale) [26, 30]: 0
- Oat, Wild plant response rating (0-100) [27, 29]: 0
- Oat, Wild plant response rating (0 to 100 scale) [27, 30]: 0
